Experimental data: patent publication US10294476B2, “NEAT1 as a prognostic marker and therapeutic target for prostate cancer” (CORNELL UNIVERSITY, priority 2014, dated 2019)

Legend:
Assay type in all cases: cell-based
NEAT1 = NEAT1 expression (qRT-PCR) in treated prostate cancer cell lines; settings: for NEAT1 expression: VCaP cells
Experimental: Cell culture and treatments: LnCaP and PC3 cells were grown in RPMI 1640 (Invitrogen) and supplemented with 10% fetal bovine serum (FBS) and 1% penicillin-streptomycin. RWPE1 cells were grown in Keratinocyte Serum Free Medium (K-SFM), Kit (Gibco, #17005-042). VCaP and DU145 cells were grown in DMEM (Invitrogen) and supplemented with 10% fetal bovine serum (FBS) with 1% penicillin streptomycin. NCI-H660 cells were grown in RPMI 1640 supplemented with 0.005 mg/ml insulin, 0.01 mg/ml transferrin, 30 nM sodium selenite, 10 nM hydrocortisone, 10 nM β-estradiol, 5% FBS, 1% penicillin-streptomycin and an extra 2 mM of L-glutamine (for a final concentration of 4 mM). For cell treatments in several experiments, the inventors used 10-100 nM β-estradiol (Sigma Aldrich), 10 μM Enzalutamide (Astellas), 10 μM bicalutamide (Sigma Aldrich), 1-10 nM R1881 (PE Biosystems), 10-100 nM 4-hydroxy tamoxifen (4OHT) (Sigma Aldrich), 1-10 μM ICI […] (Tocris Bioscience).
RNA isolation, cDNA synthesis and PCR experiments: Total RNA was isolated from frozen prostate tissue samples (for qPCR) and cell lines (for transcriptome sequencing and qPCR) using Trizol (Invitrogen) with DNase I digestion according to manufacturer's instructions. RNA integrity was verified on an Agilent Bioanalyzer 2100 (Agilent Technologies). cDNA was synthesized from total RNA using Superscript III (Invitrogen) and random primers (Invitrogen). Quantitative RT-PCR was performed using Power SYBR Green Mastermix (Applied Biosystems) on an Applied Biosystems 7900 Fast Real Time PCR machine. All primers were designed using Primer 3 and synthesized by Integrated DNA Technologies.
To test this hypothesis in vitro, the inventors evaluated the effect of anti-estrogens and anti-androgens on NEAT1 levels in prostate cancer cell lines.

VCaP cells [1] = assay: Cell invasion assay (CHEMICON kit); settings: E2 (10 nM), 48 hrs
Experimental: Invasion assay: The CHEMICON cell invasion assay kit (EMD MIlipore) was used for determining the cell invasion. Cells were serum-starved for 48 hours and then seeded at a density of 2×10^5 cells/well in the upper well of the invasion chamber. 500 μl of phenol res free DMEM media supplemented with 8% charcoal stripped serum and 10 nM E2 was added to the lower chamber. After 48-hour incubation, the invaded cells were stained by dipping the inserts in the staining solution for 20 minutes. The stained cells were then dissolved in 10% acetic acid and transferred to a 96-well plate for colorimetric reading of OD at 560 nm.

VCaP cells [2] = assay: Colony-forming assay in NEAT1-overexpressing VCaP cells; settings: NEAT1-overexpressing VCaP cells with vs without E2 (10 nM), 21 days
Experimental: Soft agar assays were performed in both VCaP and VCaP NEAT1 cells. Colonies were monitored over a period of 21 days. […] These in vitro assays establish an oncogenic role for NEAT1.

NEAT1 promoter = NEAT1 promoter luciferase reporter assay; settings: VCaP cells with ERα expression, -/+ E2 (10 nM) 24 hr
Description: Luciferase reporter assays: For ERE luciferase assays, VCaP cells were transiently transfected with the (ERE)3-5V40-luc reporter plasmid and/or ERα and/or AR as well as an internal control construct pRL harboring the renilla luciferase gene. VCaP cells were also transfected with empty vector or NEAT1 promoter (1+2) luciferase reporter constructs alone or with ERα as well as an internal control construct pRL harboring renilla luciferase gene. In order to determine the PSMA reporter activity, 293T cells and PC3 cells were co transfected with empty vector or PSMA luc and Renilla-luc reporter genes alone or with NEAT1, NEAT1+ERα, or NEAT1+AR.
[…] At 48 h cells were lysed with passive lysis buffer and luciferase activities were measured using the dual luciferase system (#E1910, Promega) and normalized with renilla luciferase activity.
The inventors inspected our ERα ChIP-seq data in VCaP ERα and NCI-H660 cells and identified two ERα binding sites on the NEAT1 promoter (FIG. 2d). […] ERα recruitment to specific regions of the NEAT1 promoter was independently validated by ERα ChIP in VCaP, VCaP ERα and NCI-H660 cells (FIG. 2e) using specific primers encompassing ERα binding sites in the NEAT1 promoter. […]

[3] = ERα antagonist alone for longer periods
[4] = ERα antagonist in combination with E2 (10 nM)

Molecule | NEAT1 expression (NEAT1; [3]) | NEAT1 expression (NEAT1; [4]) | invasive potential (VCaP cells [1]) | NEAT1 transcript levels (NEAT1; panel of prostate cancer cell lines, ERα overexpression and E2 treatment (10 nM), different time points) | number of colonies (VCaP cells [2]) | NEAT1 promoter activity (NEAT1 promoter)
C[C@]12CC[C@@H]3c4ccc(O)cc4C[C@@H](CCCCCCCCC[S+]([O-])CCCC(F)(F)C(F)(F)F)[C@H]3[C@@H]1CC[C@@H]2O (some centres unmarked) [ICI 182,720] | enhance NEAT1 expression | constrained |  |  |  | 
β-estradiol [E2] |  |  | ligand-dependent modulation of invasive potential | upregulated NEAT1 transcript levels in a time-dependent manner | significantly increased the number of colonies | further enhanced
4-hydroxy tamoxifen [4OHT] | enhance NEAT1 expression | constrained |  |  |  | 
